Active and inactive are the calls of the source. No cut-off for these calls is given here.
Tested on: Influenza A virus
Experiment: Antiviral activity against Influenza A/WSN/33 harboring H275Y mutant at 0.3 uM
Assay type: functional, organism-based

Question: Which Activity does the source give for CC(C)(C)N(CC(=O)O)Nc1nc(-c2c[nH]c3ncc(F)cc23)ncc1F here?
Answer: Active

From ChEMBL document CHEMBL5385878, “Synthesis and structure-activity optimization of 7-azaindoles containing aza-β-amino acids targeting the influenza PB2 subunit” (Eur J Med Chem, 2023)
